Source: ChEMBL document CHEMBL4507326, “Data for DCP probe TP-030-2” (2021)

Experiments:
[1] = target: Acetylcholine receptor subunit alpha (Homo sapiens) (UniProt P02708); assay: Inhibition of Nicotinic Acetylcholine D1, Bungarotoxin at 10 µM in the Eurofins-Panlabs radioligand binding assay (Eurofins_assay_258700); settings: Compound concentration 10.0 uM
[2] = target: Alpha-1A adrenergic receptor (Homo sapiens) (UniProt P35348); assay: Inhibition of Adrenergic alpha1A at compound concentration of 10.0 uM in the Eurofins-Panlabs radioligand binding assay (Eurofins_assay_203110); parameters: ligand concentration 0.25 nM; settings: Rattus norvegicus; Compound concentration 10.0 uM
[3] = target: Alpha-1B adrenergic receptor (Homo sapiens) (UniProt P35368); assay: Adrenergic alpha1B Eurofins-Panlabs radioligand binding assay; parameters: ligand concentration 0.2 nM; settings: Compound concentration 10.0 uM
[4] = target: Bone morphogenetic protein receptor type-1A (Homo sapiens, UniProt P36894); assay: BMPR1A(BM1APHRG) Takeda global kinase panel
[5] = target: Calcium/calmodulin-dependent protein kinase type IV (Homo sapiens, UniProt Q16566); assay: CaMK4(CAM4LGY1) Takeda global kinase panel
[6] = target: Cell division cycle 7-related protein kinase (Homo sapiens, UniProt O00311); assay: CDC7(CDC7CGP1) Takeda global kinase panel
[7] = target: Cyclin-dependent kinase 17 (Homo sapiens, UniProt Q00537); assay: PCTAIRE2(CD17SGS1) Takeda global kinase panel
[8] = target: Cyclin-dependent kinase 7 (Homo sapiens, UniProt P50613); assay: CDK7(CDK7CGS1) Takeda global kinase panel
[9] = target: Cyclin-dependent kinase 8 (Homo sapiens, UniProt P49336); assay: CDK8(CDK8CGS1) Takeda global kinase panel
[10] = target: Tyrosine-protein kinase Fer (Homo sapiens, UniProt P16591); assay: Fer(FER1LGY1) Takeda global kinase panel
[11] = target: G protein-coupled receptor kinase 5 (Homo sapiens, UniProt P34947); assay: GRK5(GRK5LGP1) Takeda global kinase panel
[12] = target: Inhibitor of nuclear factor kappa-B kinase subunit beta (Homo sapiens, UniProt O14920); assay: IKKbeta(IKBBLHY1) Takeda global kinase panel
[13] = target: Tyrosine-protein kinase ITK/TSK (Homo sapiens, UniProt Q08881); assay: ITK(ITK1CGF1) Takeda global kinase panel
[14] = target: Serine/threonine-protein kinase LATS2 (Homo sapiens, UniProt Q9NRM7); assay: LATS2(LAT2LGY1) Takeda global kinase panel
[15] = target: Mitogen-activated protein kinase kinase kinase 11 (Homo sapiens, UniProt Q16584); assay: MLK3(M311LGF1) Takeda global kinase panel
[16] = target: Mitogen-activated protein kinase kinase kinase 12 (Homo sapiens, UniProt Q12852); assay: DLK(M312CGY1) Takeda global kinase panel
[17] = target: Mitogen-activated protein kinase kinase kinase 14 (Homo sapiens, UniProt Q99558); assay: NIK(M314LGP1) Takeda global kinase panel
[18] = target: Mitogen-activated protein kinase 15 (Homo sapiens, UniProt Q8TD08); assay: ERK7(MP15LGY1) Takeda global kinase panel
[19] = target: Mitogen-activated protein kinase 3 (Homo sapiens, UniProt P27361); assay: ERK1(MAP3LGY1) Takeda global kinase panel
[20] = target: Mitogen-activated protein kinase 8 (Homo sapiens, UniProt P45983); assay: JNK1(MAP8LGF1) Takeda global kinase panel
[21] = target: Mitogen-activated protein kinase 9 (Homo sapiens, UniProt P45984); assay: JNK2(MAP9LGF1) Takeda global kinase panel
[22] = target: MAP kinase-activated protein kinase 5 (Homo sapiens, UniProt Q8IW41); assay: MAPKAPK5(MPK5LGN1) Takeda global kinase panel
[23] = target: MAP/microtubule affinity-regulating kinase 3 (Homo sapiens, UniProt P27448); assay: MARK3(MAR3LGO5) Takeda global kinase panel
[24] = target: Serine/threonine-protein kinase Nek11 (Homo sapiens, UniProt Q8NG66); assay: Nek11(NE11LGRI) Takeda global kinase panel
[25] = target: Serine/threonine-protein kinase Nek2 (Homo sapiens, UniProt P51955); assay: Nek2(NEK2LHFA) Takeda global kinase panel
[26] = target: Serine/threonine-protein kinase Nek8 (Homo sapiens, UniProt Q86SG6); assay: Nek8(NEK8LGRI) Takeda global kinase panel
[27] = target: NUAK family SNF1-like kinase 1 (Homo sapiens, UniProt O60285); assay: NuaK1(NUA1LGF5) Takeda global kinase panel
[28] = target: Serine/threonine-protein kinase D2 (Homo sapiens, UniProt Q9BZL6); assay: PKD2(PRD2LHY1) Takeda global kinase panel
[29] = target: Serine/threonine-protein kinase RIO2 (Homo sapiens, UniProt Q9BVS4); assay: RIOK2(RIO2LGF1) Takeda global kinase panel
[30] = target: Serine/threonine-protein kinase Sgk3 (Homo sapiens, UniProt Q96BR1); assay: SGK3(SGK3LGY1) Takeda global kinase panel
[31] = target: Serine/threonine-protein kinase SIK2 (Homo sapiens, UniProt Q9H0K1); assay: QIK(SIK2LGY1) Takeda global kinase panel
[32] = target: Tyrosine-protein kinase Srms (Homo sapiens, UniProt Q9H3Y6); assay: Srm(SRMSLGY1) Takeda global kinase panel
SRSF protein kinase 2 = SRSF protein kinase 2 (Homo sapiens, UniProt P78362); assay: SRPK2(SRP2IGRL) Takeda global kinase panel
[33] = target: STE20/SPS1-related proline-alanine-rich protein kinase (Homo sapiens, UniProt Q9UEW8); assay: STLK3(ST39LGRJ) Takeda global kinase panel
[34] = target: Serine/threonine-protein kinase ULK1 (Homo sapiens, UniProt O75385); assay: ULK1(ULK1LGF1) Takeda global kinase panel
Wee1-like protein kinase = Wee1-like protein kinase (Homo sapiens, UniProt P30291); assay: Wee1(WEE1LGF1) Takeda global kinase panel
[35] = target: Cyclin-dependent kinase 11A (Homo sapiens, UniProt Q9UQ88); assay: CDK11A(C11ALGS1) Takeda global kinase panel
[36] = target: 5-hydroxytryptamine receptor 3A (Homo sapiens) (UniProt P46098); settings: Compound concentration 10.0 uM
[37] = target: 5-hydroxytryptamine receptor 7 (Homo sapiens) (UniProt P34969); settings: Compound concentration 10.0 uM
[38] = target: D(1B) dopamine receptor (Homo sapiens) (UniProt P21918); settings: Compound concentration 10.0 uM
[39] = target: Alpha-2B adrenergic receptor (Homo sapiens) (UniProt P18089); settings: Compound concentration 10.0 uM
[40] = target: Adenosine receptor A1 (Homo sapiens) (UniProt P30542); settings: Compound concentration 10.0 uM
[41] = target: Muscarinic acetylcholine receptor M2 (Homo sapiens) (UniProt P08172); settings: Compound concentration 10.0 uM

Serine/threonine-protein kinase LATS2, sequence (Q9NRM7 whole entry): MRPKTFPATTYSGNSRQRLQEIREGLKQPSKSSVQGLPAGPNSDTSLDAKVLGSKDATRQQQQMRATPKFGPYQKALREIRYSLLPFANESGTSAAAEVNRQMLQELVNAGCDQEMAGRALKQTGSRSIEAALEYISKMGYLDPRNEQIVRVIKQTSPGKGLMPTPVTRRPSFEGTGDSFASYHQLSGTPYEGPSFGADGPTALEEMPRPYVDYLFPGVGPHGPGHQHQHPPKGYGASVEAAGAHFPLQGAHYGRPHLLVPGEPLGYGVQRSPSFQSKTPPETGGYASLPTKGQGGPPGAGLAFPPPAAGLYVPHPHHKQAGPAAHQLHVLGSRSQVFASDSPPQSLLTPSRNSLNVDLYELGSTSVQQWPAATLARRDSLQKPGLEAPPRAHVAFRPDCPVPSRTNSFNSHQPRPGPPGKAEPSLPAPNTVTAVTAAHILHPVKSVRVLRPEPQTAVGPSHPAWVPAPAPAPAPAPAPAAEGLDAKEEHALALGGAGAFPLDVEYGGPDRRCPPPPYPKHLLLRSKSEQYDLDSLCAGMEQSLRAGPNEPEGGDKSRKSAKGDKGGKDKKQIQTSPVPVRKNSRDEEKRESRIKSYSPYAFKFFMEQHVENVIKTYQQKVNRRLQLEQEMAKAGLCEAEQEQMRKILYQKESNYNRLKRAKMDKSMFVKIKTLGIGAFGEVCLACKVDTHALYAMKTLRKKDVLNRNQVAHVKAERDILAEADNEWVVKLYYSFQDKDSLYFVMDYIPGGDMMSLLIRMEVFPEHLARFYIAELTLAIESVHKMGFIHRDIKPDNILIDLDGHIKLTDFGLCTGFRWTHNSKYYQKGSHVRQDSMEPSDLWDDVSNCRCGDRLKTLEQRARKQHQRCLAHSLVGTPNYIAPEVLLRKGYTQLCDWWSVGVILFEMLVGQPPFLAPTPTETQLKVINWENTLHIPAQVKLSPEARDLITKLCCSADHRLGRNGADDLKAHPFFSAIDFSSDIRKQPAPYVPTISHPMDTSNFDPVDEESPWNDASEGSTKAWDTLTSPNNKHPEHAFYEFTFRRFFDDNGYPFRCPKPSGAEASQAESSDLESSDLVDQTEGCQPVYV
MAP/microtubule affinity-regulating kinase 3, sequence (P27448 whole entry): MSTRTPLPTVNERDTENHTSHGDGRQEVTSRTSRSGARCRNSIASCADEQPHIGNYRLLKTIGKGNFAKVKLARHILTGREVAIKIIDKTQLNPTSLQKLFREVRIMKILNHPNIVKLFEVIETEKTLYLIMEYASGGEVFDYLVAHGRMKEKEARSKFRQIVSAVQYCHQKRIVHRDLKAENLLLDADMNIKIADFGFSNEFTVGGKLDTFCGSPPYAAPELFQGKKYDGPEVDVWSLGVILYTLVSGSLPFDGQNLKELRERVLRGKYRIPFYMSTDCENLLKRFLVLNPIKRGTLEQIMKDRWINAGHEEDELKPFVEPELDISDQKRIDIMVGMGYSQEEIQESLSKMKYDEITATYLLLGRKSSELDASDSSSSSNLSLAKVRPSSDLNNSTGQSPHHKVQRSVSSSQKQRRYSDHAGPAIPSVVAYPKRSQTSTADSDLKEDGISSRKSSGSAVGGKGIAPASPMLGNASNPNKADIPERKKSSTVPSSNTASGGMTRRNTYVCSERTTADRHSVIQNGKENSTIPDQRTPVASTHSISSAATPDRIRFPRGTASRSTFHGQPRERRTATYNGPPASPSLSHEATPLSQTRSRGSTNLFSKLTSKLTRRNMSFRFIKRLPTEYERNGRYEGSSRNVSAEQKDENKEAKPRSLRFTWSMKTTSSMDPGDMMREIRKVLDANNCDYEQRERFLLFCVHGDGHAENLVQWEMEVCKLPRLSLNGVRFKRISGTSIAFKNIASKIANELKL
D(1B) dopamine receptor (Homo sapiens), sequence (P21918 whole entry): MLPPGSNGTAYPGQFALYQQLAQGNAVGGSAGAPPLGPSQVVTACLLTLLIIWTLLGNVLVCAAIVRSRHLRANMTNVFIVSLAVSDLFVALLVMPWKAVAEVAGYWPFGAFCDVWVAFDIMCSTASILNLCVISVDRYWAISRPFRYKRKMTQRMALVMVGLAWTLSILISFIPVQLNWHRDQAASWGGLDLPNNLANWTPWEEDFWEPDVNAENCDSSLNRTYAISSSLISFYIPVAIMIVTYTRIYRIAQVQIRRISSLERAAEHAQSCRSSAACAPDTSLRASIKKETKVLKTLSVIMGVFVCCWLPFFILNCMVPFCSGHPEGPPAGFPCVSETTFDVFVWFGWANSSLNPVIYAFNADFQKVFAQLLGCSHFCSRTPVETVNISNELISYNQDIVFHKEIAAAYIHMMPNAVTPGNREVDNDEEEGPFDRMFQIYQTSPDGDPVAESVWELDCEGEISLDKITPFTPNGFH
MAP kinase-activated protein kinase 5, sequence (Q8IW41 whole entry): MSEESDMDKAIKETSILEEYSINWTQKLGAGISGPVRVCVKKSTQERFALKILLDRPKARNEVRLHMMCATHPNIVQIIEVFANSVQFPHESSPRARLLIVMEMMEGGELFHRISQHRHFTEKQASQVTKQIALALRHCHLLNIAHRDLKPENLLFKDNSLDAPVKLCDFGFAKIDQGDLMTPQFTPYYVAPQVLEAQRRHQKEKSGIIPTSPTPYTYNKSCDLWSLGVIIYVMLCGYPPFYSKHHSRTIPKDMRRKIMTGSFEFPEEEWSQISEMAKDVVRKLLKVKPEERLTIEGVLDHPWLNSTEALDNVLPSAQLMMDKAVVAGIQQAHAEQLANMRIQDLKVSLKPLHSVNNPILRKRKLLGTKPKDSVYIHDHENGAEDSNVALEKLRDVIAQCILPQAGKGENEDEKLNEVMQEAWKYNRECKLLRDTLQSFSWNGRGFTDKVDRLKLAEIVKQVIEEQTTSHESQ
Tyrosine-protein kinase Srms, sequence (Q9H3Y6 whole entry): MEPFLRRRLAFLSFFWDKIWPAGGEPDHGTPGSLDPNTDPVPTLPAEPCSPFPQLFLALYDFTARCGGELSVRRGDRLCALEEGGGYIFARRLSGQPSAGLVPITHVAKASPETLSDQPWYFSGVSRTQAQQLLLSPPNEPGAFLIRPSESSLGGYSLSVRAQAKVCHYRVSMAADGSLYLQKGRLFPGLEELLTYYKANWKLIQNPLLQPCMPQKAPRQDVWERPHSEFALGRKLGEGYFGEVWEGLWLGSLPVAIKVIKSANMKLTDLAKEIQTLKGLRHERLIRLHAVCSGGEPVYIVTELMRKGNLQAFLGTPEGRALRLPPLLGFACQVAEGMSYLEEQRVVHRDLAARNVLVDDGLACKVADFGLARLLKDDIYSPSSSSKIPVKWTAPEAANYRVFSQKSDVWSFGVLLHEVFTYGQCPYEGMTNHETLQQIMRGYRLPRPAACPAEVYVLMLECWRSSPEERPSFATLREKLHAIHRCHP
Tyrosine-protein kinase ITK/TSK, sequence (Q08881 whole entry): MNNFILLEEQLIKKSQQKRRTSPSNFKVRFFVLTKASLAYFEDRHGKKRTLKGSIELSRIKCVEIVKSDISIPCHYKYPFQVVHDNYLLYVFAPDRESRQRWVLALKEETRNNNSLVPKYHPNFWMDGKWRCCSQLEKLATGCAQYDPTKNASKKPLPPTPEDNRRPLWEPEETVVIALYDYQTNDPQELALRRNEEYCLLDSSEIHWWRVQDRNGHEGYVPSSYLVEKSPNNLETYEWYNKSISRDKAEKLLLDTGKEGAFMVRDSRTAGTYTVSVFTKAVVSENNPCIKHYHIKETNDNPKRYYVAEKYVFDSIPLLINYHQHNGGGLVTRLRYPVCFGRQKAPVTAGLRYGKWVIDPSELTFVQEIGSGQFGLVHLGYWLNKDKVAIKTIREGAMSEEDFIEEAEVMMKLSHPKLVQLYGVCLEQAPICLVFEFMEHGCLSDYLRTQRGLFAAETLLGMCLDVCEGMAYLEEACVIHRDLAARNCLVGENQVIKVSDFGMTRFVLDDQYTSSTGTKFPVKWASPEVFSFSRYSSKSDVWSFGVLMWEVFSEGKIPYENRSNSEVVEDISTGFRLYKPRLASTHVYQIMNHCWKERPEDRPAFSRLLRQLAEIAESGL
Cyclin-dependent kinase 11A, sequence (Q9UQ88 whole entry): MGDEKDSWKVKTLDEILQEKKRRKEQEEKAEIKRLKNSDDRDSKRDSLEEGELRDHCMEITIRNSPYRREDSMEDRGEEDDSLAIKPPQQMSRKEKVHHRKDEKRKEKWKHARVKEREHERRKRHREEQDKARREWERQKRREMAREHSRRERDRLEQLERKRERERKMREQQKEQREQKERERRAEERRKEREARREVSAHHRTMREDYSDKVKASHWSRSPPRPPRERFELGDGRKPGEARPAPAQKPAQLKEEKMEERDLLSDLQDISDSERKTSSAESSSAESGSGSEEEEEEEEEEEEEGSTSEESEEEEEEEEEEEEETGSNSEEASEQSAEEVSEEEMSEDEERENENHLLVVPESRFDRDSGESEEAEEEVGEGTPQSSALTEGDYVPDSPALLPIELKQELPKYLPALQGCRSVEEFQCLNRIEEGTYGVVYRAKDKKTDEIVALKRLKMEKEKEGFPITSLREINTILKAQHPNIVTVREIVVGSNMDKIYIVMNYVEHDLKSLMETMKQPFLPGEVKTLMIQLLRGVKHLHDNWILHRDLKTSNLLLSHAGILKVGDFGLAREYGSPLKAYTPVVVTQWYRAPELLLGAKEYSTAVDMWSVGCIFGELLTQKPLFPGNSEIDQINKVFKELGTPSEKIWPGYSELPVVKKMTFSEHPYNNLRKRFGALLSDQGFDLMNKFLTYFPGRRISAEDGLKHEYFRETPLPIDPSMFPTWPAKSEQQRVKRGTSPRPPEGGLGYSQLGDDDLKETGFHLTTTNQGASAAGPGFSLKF
Cyclin-dependent kinase 7, sequence (P50613 whole entry): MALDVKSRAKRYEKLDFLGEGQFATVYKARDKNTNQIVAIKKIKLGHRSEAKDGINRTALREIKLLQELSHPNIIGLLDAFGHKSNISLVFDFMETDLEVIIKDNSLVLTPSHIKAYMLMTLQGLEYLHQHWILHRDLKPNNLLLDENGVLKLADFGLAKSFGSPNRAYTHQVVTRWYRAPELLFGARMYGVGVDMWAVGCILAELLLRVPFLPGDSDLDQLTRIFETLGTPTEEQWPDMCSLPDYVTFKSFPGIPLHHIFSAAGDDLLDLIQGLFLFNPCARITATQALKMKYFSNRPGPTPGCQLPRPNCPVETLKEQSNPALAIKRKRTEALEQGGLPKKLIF

CN1C(=O)[C@@H](N2CCc3c(nn(Cc4ccccc4)c3Br)C2=O)COc2ccccc21 [TP-030-2]
1000 nM: IC50 [4] | IC50 [5] | IC50 [6] | IC50 [7] | IC50 [8] | IC50 [9] | IC50 [10] | IC50 [11] | IC50 [12] | IC50 [13] | IC50 [14] | IC50 [15] | IC50 [16] | IC50 [17] | IC50 [18] | IC50 [19] | IC50 [20] | IC50 [21] | IC50 [22] | IC50 [23] | IC50 [24] | IC50 [25] | IC50 [26] | IC50 [27] | IC50 [28] | IC50 [29] | IC50 [30] | IC50 [31] | IC50 [32] | IC50 (SRSF protein kinase 2) | IC50 [33] | IC50 [34] | IC50 (Wee1-like protein kinase) | IC50 [35]
inactive: inhibition [1] -2% | inhibition [2] -7% | inhibition [3] -2% | inhibition [36] 37.7% | inhibition [37] 5.69% | inhibition [38] 41.7% | inhibition [40] 11% | inhibition [41] 2%
active: inhibition [39] 59.6%
